{"source": "patent US6358736B1", "about": "“Method for increasing the antigen presenting ability of leukemia cells” (The United States of America as represented by the …, priority 1995, dated 2002)", "molecules": {"B1": {"name": "rhIFN-gamma: recombinant human interferon gamma (protein, UniProt P01579 24-161, looked up)", "Interferon gamma": "QDPYVKEAENLKKYFNAGHSDVADNGTLFLGILKNWKEESDRKIMQSQIVSFYFKLFKNFKDDQSIQKSVETIKEDMNVKFFNSNKKKRDDFEKLTNYSVTDLNVQRKAIHELIQVMAELSPAAKTGKRKRSQMLFRG"}}, "key": {"HL-60 cells [1]": {"test_system": "HL-60 cells", "assay": "FACS analysis of cell surface markers on HL-60 cells", "format": "cell-based, human", "experimental": "Calcium was removed from cultured cells by two methods.\nThe second method involved washing the cells extensively in calcium-free RPMI medium, and culturing them in the same calcium-free medium supplemented with serum that had been dialyzed against calcium-free phosphate-buffered saline.\nThe calmodulin kinase inhibitors KN-62 (20 uM) or KT-5926 (1 uM) was added to HL-60 cells in the presence of 188 ng/ml A23187. Twenty four hours later the level of CD80 was analyzed.\nThapsigargin was added to cultured human peripheral blood monocytes and HL-60 cells in concentrations ranging from 0 to 1000 nM. Cells were harvested 24 hours later and evaluated for the acquisition of ADC immunophenotypic characteristics by FACS analysis.\nCells were harvested after three days, irradiated (3000R), then FACS analyzed or cocultured in graded numbers with freshly prepared naive (CD45RO negative) T lymphocytes. Allosensitization was assessed by pulsing at day 4 with ^3H-TdR and harvesting 18 hours later."}, "[2]": {"test_system": "human peripheral blood monocytes", "assay": "FACS analysis of cell surface markers on cultured peripheral blood monocytes", "format": "cell-based", "conditions": "for effect of agent on ionophore-induced activated myeloid dendritic cell phenotype: added to calcium ionophore treatment"}, "HL-60 cells [3]": {"test_system": "HL-60 cells", "assay": "FACS analysis of cell surface markers on HL-60 cells", "format": "cell-based, human", "remark": "listed apart in the source"}, "WEHI-3": {"test_system": "WEHI-3", "assay": "Costimulatory molecule expression on mouse myeloid leukemia line", "format": "cell-based", "conditions": "following calcium mobilization", "source_text": "Myeloid leukemia cell lines display marked upregulation of molecules linked to antigen-presentation and acquire increased T cell sensitizing capacity following calcium mobilization with either calcium ionophore or thapsigargin."}, "monocytes": {"test_system": "monocytes", "assay": "Calcium-chelation luminescence spectrophotometry of intracellular calcium flux", "format": "cell-based, human", "conditions": "indol-loaded monocytes; calcium ionophore 180-750 ng/ml", "experimental": "Calcium-chelation luminescence spectrophotometry was utilized to measure intracellular calcium fluxes in monocytes. Monoytes were incubated with 5 uM/ml indol, a calcium chelating agent which emits fluorescence at different wavelengths (405 or 480 nm) depending on whether or not it is bound to cycloplasmic calcium. Increased calcium mobilization causes relative shifts in emission from one wavelength to the other. After 30 minute incubation with indol, monocytes were washed, pulsed with a variety of agents such as calcium ionophore, virus, f-MET-LEU-PHE, or LPS. To measure calcium fluxes at subsequent time intervals, cells were stimulated with a 355 nm wavelength beam, and fluorescence emission measured at 405 and 480 nm."}}, "note": "Entries after “also recorded” stand apart in the source; their conditions may differ."}
{"molecule": "O=C(O)CN(CCN(CC(=O)O)CC(=O)O)CC(=O)O", "note": "[EDTA]", "values": [{"measurement": "suppression of ionophore-induced CD80/CD86", "setting": "HL-60 cells [1]; 0.25 uM EDTA", "value": "suppressive effects rapidly diminished"}, {"measurement": "suppression of ionophore-induced CD80/CD86", "setting": "HL-60 cells [1]; 0.5 uM EDTA", "value": "Almost identical suppression"}, {"measurement": "diminution of ionophore-induced CD86 levels", "setting": "HL-60 cells [1]; 1 uM EDTA", "value": "more than 85%"}, {"measurement": "suppression of ionophore-induced CD80 upregulation", "setting": "HL-60 cells [1]; 1 uM EDTA", "value": 100, "unit": "%"}]}
{"molecule": "NCCCCCCNS(=O)(=O)c1cccc2c(Cl)cccc12", "note": "[W-7]", "values": [{"measurement": "effect of agent on ionophore-induced activated myeloid dendritic cell phenotype", "setting": "[2]", "value": "inhibited at least some of the ionophore's effects"}, {"measurement": "inhibition of ionophore-induced CD80 expression", "setting": "HL-60 cells [3]; W-7 50 uM (optimal), A23187 188 ng/ml, 24 hours", "value": "over 75%"}]}
{"molecule": "C/C=C(/C)C(=O)O[C@H]1C(C)=C2[C@H]([C@@H]1OC(=O)CCCCCCC)[C@@](C)(OC(C)=O)C[C@H](OC(=O)CCC)[C@@]1(O)[C@H]2OC(=O)[C@@]1(C)O", "note": "[thapsigargin]", "values": [{"measurement": "dose giving optimal response", "setting": "HL-60 cells [1]; 24 hours, range 0 to 1000 nM", "value": 250, "unit": "nM"}, {"measurement": "levels of CD80, CD86 and ICAM-1 relative to those observed with ionophore", "setting": "HL-60 cells [1]; thapsigargin 250 nM, 24 hours", "value": "50-75%"}, {"measurement": "upregulation of CD80, CD86, CD40, HLA-DR, HLA-ABC, ICAM-1 and CD83 as magnitude of that with optimal (750 ng/ml) A23187", "setting": "[2]; thapsigargin 750 nM, 24 hours", "value": "about 50%"}, {"measurement": "CD14 downregulation, effectiveness relative to ionophore", "setting": "[2]; thapsigargin, 24 hours", "value": "about 75%"}, {"measurement": "expression of CD83, ICAM-1, B7.1 and B7.2", "setting": "HL-60 cells [3]; optimal doses, within 20 hours", "value": "uniform de novo expression of CD83, ICAM-1, B7.1, and B7.2"}, {"measurement": "costimulatory molecule expression", "setting": "WEHI-3", "value": "markedly increased costimulatory molecule expression"}]}
{"molecule": "f-MET-LEU-PHE", "values": [{"measurement": "induction of activated myeloid dendritic cell phenotype (CD80 and CD83 expression)", "setting": "[2]; 20-40 hours, wide dose range, alone or in combination", "value": "do not induce monocytes to express the phenotype of activated myeloid dendritic cells; also recorded: does not induce that phenotype"}, {"measurement": "intracellular calcium flux / mobilization", "setting": "monocytes", "value": "only a brief calcium flux of much lower magnitude"}]}
{"molecule": "rhGM-CSF: recombinant human GM-CSF", "values": [{"measurement": "effect of agent on ionophore-induced activated myeloid dendritic cell phenotype", "setting": "[2]", "value": "enhanced CD14 downregulation and upregulation of costimulatory, MHC, and other molecule expression"}, {"measurement": "effect on HL-60 phenotype", "setting": "HL-60 cells [3]; rhGM-CSF alone", "value": "little effect alone"}]}
{"molecule": "trifluoperazine dimaleate [TpD]", "values": [{"measurement": "effect on CD40, HLA-DR and HLA-ABC", "setting": "[2]; TpD", "value": "significant suppressive effects"}, {"measurement": "inhibition of CD80", "setting": "[2]; TpD 10 uM (optimal)", "value": "over 50%"}, {"measurement": "inhibition of CD86", "setting": "[2]; TpD 10 uM (optimal)", "value": "over 50%"}, {"measurement": "effect of agent on ionophore-induced activated myeloid dendritic cell phenotype", "setting": "[2]", "value": "inhibited at least some of the ionophore's effects"}, {"measurement": "inhibition of ionophore-induced up-regulation of CD80", "setting": "HL-60 cells [3]; TpD 10 uM (optimal), A23187 188 ng/ml, 24 hours", "value": "over 90%"}]}
{"molecule": "B1", "values": [{"measurement": "HLA-DR expression", "setting": "HL-60 cells [1]; agent alone", "value": "induces HLA-DR expression"}, {"measurement": "effect of agent on ionophore-induced activated myeloid dendritic cell phenotype", "setting": "[2]", "value": "enhanced CD14 downregulation and upregulation of costimulatory, MHC, and other molecule expression"}]}
